The values that follow come from patent publication US8158621B2, “Methods of treating or preventing autoimmune diseases with 2,4-pyrimidinediamine compounds” (Rigel Pharmaceuticals, Inc., priority 2002, dated 2012).

Structures are written as SMILES. Where only a bound is given, the exact number is not on record here.

For one assay, the system named is bone marrow derived mast cells (BMMC). Put plainly: BMMC high cell density IgE activation: hexosaminidase. The class given is cell-based, mouse. The settings on record: high cell density; read-out: BMMC anti-IgE Hexos. The procedure: (§1) After sensitizing, cells are counted, pelleted (1000 rpm, 5-10 minutes), and resuspended at 1-3×10^6 cells/ml in MT buffer. Add 100 ul of cell suspension to each well and 100 ul of compound dilutions. The final vehicle concentration is 0.5% DMSO. Incubate at 37° C. (5% CO2) for 1 hour. After 1 hour of compound treatment, stimulate cells with 6× stimulus (60 ng/ml DNP-BSA). Mix wells with the cells and allow plates to incubate at 37° C. (5% CO2) for one hour. After 1 hour incubation, pellet cells (10 minutes, 1000 RPM) and collect 200 ul per well of the supernatant, being careful not to disturb pellet, and transfer to a clean tube or 96-well plate. Place the supernatant plate on ice. During the 4-5 hour step (see next) perform the hexosiminidase assay. Resuspend cell pellet in 240 ul WEI-conditioned media containing 0.5% DMSO and corresponding concentration of compound. Incubate BMMC cells for 4-5 hours at 37° C. (5% CO2). After incubation, pellet cells (1000 RPM, 10 minutes) and collect 225 ul per well and place in −80° C. until ready to perform ELISAS. ELISAS are performed on appropriately diluted samples (determined empirically for each donor cell population so that the sample measurement falls within the standard curve) following the supplier's instructions.
(§2) Add 50 uL of BMMC cell supernatant (see above) to the hexoseaminidase substrate, place at 37° C. for 30 minutes and read the plate at 5, 10, 15, and 30 minutes on a spectrophotometer.
As for `COc1c(C)cc(Nc2ncc(F)c(Nc3ccc4c(c3)NC(=O)C(C)(C)O4)n2)cc1Cl` [Compound R940361], the IC50 was determined as 60 nM.

`Cn1ncc2ccc(Nc3ncc(F)c(Nc4ccc(Cl)c(Cl)c4)n3)cc21` [Compound R935393]: the IC50 came to 2440 nM.

For another assay, the system named is Human Jurkat T-cells (clone N). Put plainly: Jurkat T-cell activation (anti-TCR, CD69 upregulation). The class given is cell-based.
Details: not given
A digest of the protocol: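 Jurkat cells in RPMI + 5% FBS preincubated with compound 1 h at 37 °C, then stimulated with anti-TCR C305 at 500 ng/ml for 20 h. CD69 surface expression stained with anti-CD69-APC and read by flow cytometry; IC50 versus solvent-only control.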
Take `COC(=O)c1cc2cc(Nc3ncc(F)c(Nc4ccc(OC(C)C)cc4)n3)ccc2o1` [Compound R926704]: the IC50 was 9270 nM.

With `COC(=O)c1cc2cc(Nc3ncc(F)c(Nc4cccc(O)c4)n3)ccc2o1` [Compound R926614], the IC50 was 6540 nM.

Turning to `COC(=O)C1Cc2cc(Nc3ncc(F)c(Nc4ccc(OC(C)C)cc4)n3)ccc2O1` (stereo not shown) [Compound R926706], the IC50 was above 10000 nM.

`COc1c(C)cc(Nc2ncc(F)c(Nc3ccc4c(c3)NC(=O)C(C)(C)O4)n2)cc1Cl` [Compound R940361] showed an IC50 of 390 nM.

`Cn1ncc2ccc(Nc3ncc(F)c(Nc4ccc(Cl)c(Cl)c4)n3)cc21` [Compound R935393] showed an IC50 above 10000 nM.

The next assay concerns cultured human mast cells (CHMC). The assay is described as follows: CHMC high cell density IgE activation: hexos. It is filed as cell-based.
Details: not given
Here is the method:
(§3) After sensitizing, cells are counted, pelleted (1000 rpm, 5-10 minutes), and resuspended at 1-2 ×10^6 cells/ml in MT buffer. Add 100 ul of cell suspension to each well and 100 ul of compound dilutions. The final vehicle concentration is 0.5% DMSO. Incubate at 37° C. (5% CO2) for 1 hour. After 1 hour of compound treatment, stimulate cells with 6× anti-IgE. Mix wells with the cells and allow plates to incubate at 37° C. (5% CO2) for one hour. After 1 hour incubation, pellet cells (10 minutes, 1000 RPM) and collect 200 ul per well of the supernatant, being careful not to disturb pellet. Place the supernatant plate on ice. During the 7-hour step (see next) perform tryptase assay on supernatant that had been diluted 1:500. Resuspend cell pellet in 240 ul of CM media containing 0.5% DMSO and corresponding concentration of compound. Incubate CHMC cells for 7 hours at 37° C. (5% CO2). After incubation, pellet cells (1000 RPM, 10 minutes) and collect 225 ul per well and place in −80° C. until ready to perform ELISAS. ELISAS are performed on appropriately diluted samples (determined empirically for each donor cell population so that the sample measurement falls within the standard curve) following the supplier's instructions.
as §2
Compound `COC(=O)c1cc2cc(Nc3ncc(F)c(Nc4ccc(OC(C)C)cc4)n3)ccc2o1` [Compound R926704] came in with an IC50 above 2000 nM.

On to `COC(=O)c1cc2cc(Nc3ncc(F)c(Nc4cccc(O)c4)n3)ccc2o1` [Compound R926614], for which the IC50 is above 10000 nM.

Regarding `COC(=O)C1Cc2cc(Nc3ncc(F)c(Nc4ccc(OC(C)C)cc4)n3)ccc2O1` (stereo not shown) [Compound R926706], the IC50 was above 2000 nM.

For another assay the test system is unchanged. The assay is described as follows: CHMC low cell density IgE activation: LTC4 assay. It is filed as cell-based. The settings on record: anti-IgE activation, LTC4 release. Here is the method: Pellet CHMC cells (980 rpm, 10 min) and resuspend in pre-warmed MT. Add 65 ul of cells to each 96-well plate. Depending on the degranulation activity for each particular CHMC donor, load 1000-1500 cells/well. Mix four times followed by a 1 hr incubation at 37° C. […] Stimulate cells by adding 25 ul of 6× anti-IgE solution to the appropriate plates. Add 25 ul MT to un-stimulated control wells. Mix twice following addition of the anti-IgE. Incubate at 37° C. for 30 minutes. […] Spin plates at 1000 rpm for 10 min to pellet cells. Transfer 25 ul of supernatant to a 96-well black bottom plate and add 100 ul of freshly diluted tryptase substrate solution to each well. Incubate plates at room temperature for 30 min.
Leukotriene C4 (LTC4) is also quantified using an ELISA kit on appropriately diluted supernatant samples (determined empirically for each donor cell population so that the sample measurement falls within the standard curve) following the supplier's instructions.
Take `COC(=O)C1Cc2cc(Nc3ncc(F)c(Nc4ccc(OC(C)C)cc4)n3)ccc2O1` (stereo not shown) [Compound R926706]: the IC50 came to 78 nM.

The test system is the same in a further assay. The assay is described as follows: CHMC high cell density IgE activation: histamine. It is filed as cell-based.
Details: not given
Here is the method:
as §3
`COC(=O)c1cc2cc(Nc3ncc(F)c(Nc4ccc(OC(C)C)cc4)n3)ccc2o1` [Compound R926704] had an IC50 above 10000 nM.

As for `COC(=O)C1Cc2cc(Nc3ncc(F)c(Nc4ccc(OC(C)C)cc4)n3)ccc2O1` (stereo not shown) [Compound R926706], the IC50 was above 10000 nM.

The test system is the same in the next assay. The assay is described as follows: CHMC low cell density ionomycin activation: tryptase assay. It is filed as cell-based. The settings on record: Low Density CHMC, ionomycin activation, tryptase release; read-out: CHMC Ionomycin Tryptase IC50.
For the compound `COC(=O)c1cc2cc(Nc3ncc(F)c(Nc4ccc(OC(C)C)cc4)n3)ccc2o1` [Compound R926704], the IC50 was above 10000 nM.

Take `COC(=O)c1cc2cc(Nc3ncc(F)c(Nc4cccc(O)c4)n3)ccc2o1` [Compound R926614]: the IC50 is above 10000 nM.

For the compound `COC(=O)C1Cc2cc(Nc3ncc(F)c(Nc4ccc(OC(C)C)cc4)n3)ccc2O1` (stereo not shown) [Compound R926706], the IC50 was 2410 nM.

Still in this assay, the particulars now being: low cell density; read-out: CHMC Ionomycin Tryptase.
Regarding `COc1c(C)cc(Nc2ncc(F)c(Nc3ccc4c(c3)NC(=O)C(C)(C)O4)n2)cc1Cl` [Compound R940361], the IC50 is 2200 nM.

For `Cn1ncc2ccc(Nc3ncc(F)c(Nc4ccc(Cl)c(Cl)c4)n3)cc21` [Compound R935393], the IC50 was above 10000 nM.

The test system is the same in the next assay. The assay is described as follows: CHMC high cell density IgE activation: LTC4. It is filed as cell-based.
Details: not given
Here is the method:
as §3
The compound `COC(=O)c1cc2cc(Nc3ncc(F)c(Nc4ccc(OC(C)C)cc4)n3)ccc2o1` [Compound R926704] gave an IC50 above 10000 nM.

For `COC(=O)C1Cc2cc(Nc3ncc(F)c(Nc4ccc(OC(C)C)cc4)n3)ccc2O1` (stereo not shown) [Compound R926706], the IC50 was 1490 nM.

For another assay, the target named is T1, Syk kinase (Homo sapiens, UniProt P43405).
T1 construct: purchased Upstate, Lake Placid NY
The assay is described as follows: Syk kinase biochemical fluorescence polarization assay. The note with it: isolated Syk kinase, fluorescence polarization, 4 uM ATP.
On to `COc1c(C)cc(Nc2ncc(F)c(Nc3ccc4c(c3)NC(=O)C(C)(C)O4)n2)cc1Cl` [Compound R940361], for which the IC50 was found to be 69 nM.

As to `Cn1ncc2ccc(Nc3ncc(F)c(Nc4ccc(Cl)c(Cl)c4)n3)cc21` [Compound R935393], the IC50 was determined as 450 nM.

For another assay, the system named is cultured human mast cells (CHMC). Put plainly: CHMC high cell density IgE activation: tryptase. The class given is cell-based.
Details: not given
Here is the method:
as §3
Take `COC(=O)c1cc2cc(Nc3ncc(F)c(Nc4ccc(OC(C)C)cc4)n3)ccc2o1` [Compound R926704]: the IC50 is above 10000 nM.

Consider `COC(=O)c1cc2cc(Nc3ncc(F)c(Nc4cccc(O)c4)n3)ccc2o1` [Compound R926614], for which the IC50 was above 10000 nM.

Compound `COC(=O)C1Cc2cc(Nc3ncc(F)c(Nc4ccc(OC(C)C)cc4)n3)ccc2O1` (stereo not shown) [Compound R926706] yielded an IC50 above 10000 nM.

For another assay the test system is unchanged. The assay is described as follows: CHMC high cell density IgE activation: TNFalpha. The class given is cell-based. The settings on record: read-out: CHMC high density TNF-alpha. Here is the method: as §3
Turning to `COC(=O)c1cc2cc(Nc3ncc(F)c(Nc4ccc(OC(C)C)cc4)n3)ccc2o1` [Compound R926704], the IC50 is above 10000 nM.

For the compound `COC(=O)c1cc2cc(Nc3ncc(F)c(Nc4cccc(O)c4)n3)ccc2o1` [Compound R926614], the IC50 was above 10000 nM.

For the compound `COC(=O)C1Cc2cc(Nc3ncc(F)c(Nc4ccc(OC(C)C)cc4)n3)ccc2O1` (stereo not shown) [Compound R926706], the IC50 was above 10000 nM.

The next assay relates to bone marrow derived mast cells (BMMC). Put plainly: BMMC high cell density IgE activation: TNFalpha. It is filed as cell-based, mouse. The note with it: high cell density; read-out: BMMC anti-IgE TNF-alpha. The procedure: as §1
In the case of `COc1c(C)cc(Nc2ncc(F)c(Nc3ccc4c(c3)NC(=O)C(C)(C)O4)n2)cc1Cl` [Compound R940361], the IC50 stood at 70 nM.

Regarding `Cn1ncc2ccc(Nc3ncc(F)c(Nc4ccc(Cl)c(Cl)c4)n3)cc21` [Compound R935393], the IC50 was 1470 nM.

The subject of a further assay is cultured human mast cells (CHMC). Put plainly: CHMC low cell density IgE activation: tryptase assay. It is filed as cell-based. The note with it: Low Density CHMC, anti-IgE activation, tryptase release; read-out: CHMC anti-IgE Tryptase IC50. A digest of the protocol:
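Low-density CHMC assay: donor-adjusted 1000-1500 cells/well, MT buffer, 1 hr 37° C preincubation; anti-IgE stimulus 30 min 37° C versus MT-only controls; supernatant tryptase by substrate, 30 min RT.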
Turning to `COC(=O)c1cc2cc(Nc3ncc(F)c(Nc4ccc(OC(C)C)cc4)n3)ccc2o1` [Compound R926704], the IC50 is 564 nM.

As to `COC(=O)c1cc2cc(Nc3ncc(F)c(Nc4cccc(O)c4)n3)ccc2o1` [Compound R926614], the IC50 came to 228 nM.

For `COC(=O)C1Cc2cc(Nc3ncc(F)c(Nc4ccc(OC(C)C)cc4)n3)ccc2O1` (stereo not shown) [Compound R926706], the IC50 is 70 nM.

Staying with this assay, now noted: low cell density; read-out: CHMC anti-IgE Tryptase.
Regarding `COc1c(C)cc(Nc2ncc(F)c(Nc3ccc4c(c3)NC(=O)C(C)(C)O4)n2)cc1Cl` [Compound R940361], the IC50 was found to be 47 nM.

For a further assay the test system is unchanged. The assay is described as follows: CHMC high cell density IgE activation: IL-13. The class given is cell-based.
Details: not given
Here is the method:
as §3
In the case of `COC(=O)c1cc2cc(Nc3ncc(F)c(Nc4cccc(O)c4)n3)ccc2o1` [Compound R926614], the IC50 turned out to be 6440 nM.

Another assay concerns bone marrow derived mast cells (BMMC). The assay is described as follows: BMMC high cell density IgE activation: IL-6. The class given is cell-based, mouse. The note with it: high cell density; read-out: BMMC anti-IgE IL-6. The procedure: as §1
On to `COc1c(C)cc(Nc2ncc(F)c(Nc3ccc4c(c3)NC(=O)C(C)(C)O4)n2)cc1Cl` [Compound R940361], for which the IC50 was found to be 100 nM.

For `Cn1ncc2ccc(Nc3ncc(F)c(Nc4ccc(Cl)c(Cl)c4)n3)cc21` [Compound R935393], the IC50 was found to be 520 nM.
